Measured values from ChEMBL document CHEMBL4340516, “Synthesis and antitumor activity of novel steroidal imidazolium salt derivatives” (Eur J Med Chem, 2019).
pIC50: −log10 of the molar value.

Tests used:
Assay type in all cases: functional, cell-based
HL-60 = assay: Antiproliferative activity against human HL60 cells assessed as reduction in cell viability incubated for 48 hrs by MTS assay; details: HL-60, 48 h
SMMC-7721 = assay: Antiproliferative activity against human SMMC7721 cells assessed as reduction in cell viability incubated for 48 hrs by MTS assay; details: SMMC-7721, 48 h
MCF7 = assay: Antiproliferative activity against human MCF7 cells assessed as reduction in cell viability incubated for 48 hrs by MTS assay; details: MCF7, 48 h
A549 = assay: Antiproliferative activity against human A549 cells assessed as reduction in cell viability incubated for 48 hrs by MTS assay; details: A549, 48 h
SW480 = assay: Antiproliferative activity against human SW480 cells assessed as reduction in cell viability incubated for 48 hrs by MTS assay; details: SW480, 48 h

Structure (SMILES) | pIC50 (HL-60) | pIC50 (SMMC-7721) | pIC50 (MCF7) | pIC50 (A549) | pIC50 (SW480)
C[C@@H]1CC[C@@]2(OC1)O[C@H]1C[C@H]3[C@@H]4CC=C5C[C@@H](n6cc[n+](CC(=O)c7ccccc7)c6)CC[C@]5(C)[C@H]4CC[C@]3(C)[C@H]1[C@@H]2C | 5.93 | 5.67 | 5.25 | 5.73 | 5.10
C[C@@H]1CC[C@@]2(OC1)O[C@H]1C[C@H]3[C@@H]4CC=C5C[C@H](n6cc[n+](Cc7ccc8ccccc8c7)c6)CC[C@]5(C)[C@H]4CC[C@]3(C)[C@H]1[C@@H]2C | 6.00 | 5.94 | 5.96 | 5.95 | 5.80
COc1ccc(C(=O)C[n+]2ccn([C@H]3C[C@H]4[C@@H]5C[C@@H]6O[C@]7(CC[C@@H](C)CO7)[C@@H](C)[C@@H]6[C@@]5(C)CC[C@@H]4[C@@]4(C)CC[C@@H]5C[C@]534)c2)cc1 | 5.90 | 5.14 | 5.35 | 5.14 | 5.15
CC(C)CCC[C@@H](C)[C@H]1CC[C@H]2[C@@H]3CC=C4C[C@@H](n5cc[n+](Cc6ccccc6Br)c5)CC[C@]4(C)[C@H]3CC[C@]12C | 5.63 | 5.84 | 5.12 | 5.09 | 5.11
CC(C)CCC[C@@H](C)[C@H]1CC[C@H]2[C@@H]3CC=C4C[C@H](n5c[n+](Cc6ccccc6Br)c6ccccc65)CC[C@]4(C)[C@H]3CC[C@]12C | 5.35 | 5.81 | 5.05 | 5.14 | 4.97
Cc1cc2c(cc1C)[n+](CC(=O)c1ccc3ccccc3c1)cn2[C@@H]1CC[C@@]2(C)C(=CC[C@H]3[C@@H]4C[C@@H]5O[C@]6(CC[C@@H](C)CO6)[C@@H](C)[C@@H]5[C@@]4(C)CC[C@@H]32)C1 | 6.35 | 6.24 | 5.52 | 5.26 | 5.51
C[C@@H]1CC[C@@]2(OC1)O[C@H]1C[C@H]3[C@@H]4CC=C5C[C@H](n6c[n+](Cc7ccc8ccccc8c7)c7ccccc76)CC[C@]5(C)[C@H]4CC[C@]3(C)[C@H]1[C@@H]2C | 5.99 | 6.06 | 5.64 | 5.90 | 5.74
C[C@@H]1CC[C@@]2(OC1)O[C@H]1C[C@H]3[C@@H]4C[C@H](n5cc[n+](CC(=O)c6ccccc6)c5)[C@]56C[C@H]5CC[C@]6(C)[C@H]4CC[C@]3(C)[C@H]1[C@@H]2C | 5.57 | 5.13 | 5.26 | 5.11 | 5.13
C[C@@H]1CC[C@@]2(OC1)O[C@H]1C[C@H]3[C@@H]4CC=C5C[C@H](n6c[n+](CC(=O)c7ccccc7)c7ccccc76)CC[C@]5(C)[C@H]4CC[C@]3(C)[C@H]1[C@@H]2C | 5.92 | 5.74 | 5.60 | 5.59 | 5.59
COc1ccc(C(=O)C[n+]2ccn([C@@H]3CC[C@@]4(C)C(=CC[C@H]5[C@@H]6CC[C@H]([C@H](C)CCCC(C)C)[C@@]6(C)CC[C@@H]54)C3)c2)cc1 | 5.22 | 5.54 | 5.28 | 4.88 | 5.31
CC(C)CCC[C@@H](C)[C@H]1CC[C@H]2[C@@H]3CC=C4C[C@H](n5c[n+](CC(=O)c6ccccc6)c6ccccc65)CC[C@]4(C)[C@H]3CC[C@]12C | 6.06 | 5.78 | 5.14 | 5.12 | 4.99
COc1ccc(C(=O)C[n+]2ccn([C@@H]3CC[C@@]4(C)C(=CC[C@H]5[C@@H]6C[C@@H]7O[C@]8(CC[C@@H](C)CO8)[C@@H](C)[C@@H]7[C@@]6(C)CC[C@@H]54)C3)c2)cc1 | 5.90 | 5.82 | 5.83 | 5.71 | 5.59
Cc1cc2c(cc1C)[n+](CC(=O)c1cccc(Br)c1)cn2[C@@H]1CC[C@@]2(C)C(=CC[C@H]3[C@@H]4C[C@@H]5O[C@]6(CC[C@@H](C)CO6)[C@@H](C)[C@@H]5[C@@]4(C)CC[C@@H]32)C1 | 6.01 | 5.86 | 5.56 | 5.15 | 5.65
c1c[nH]cn1 [IMIDAZOLE] | < 4.70 | < 4.70 | < 4.70 | < 4.70 | < 4.70
COc1ccc(C(=O)C[n+]2ccn([C@H]3CC[C@@]4(C)C(=CC[C@H]5[C@@H]6CC[C@H]([C@H](C)CCCC(C)C)[C@@]6(C)CC[C@@H]54)C3)c2)cc1 | 5.10 | 5.82 | 5.06 | 5.06 | 4.97
C[C@@H]1CC[C@@]2(OC1)O[C@H]1C[C@H]3[C@@H]4CC=C5C[C@H](n6cc[n+](Cc7ccccc7Br)c6)CC[C@]5(C)[C@H]4CC[C@]3(C)[C@H]1[C@@H]2C | 6.37 | 6.02 | 5.85 | 5.91 | 5.78

Structure (SMILES) | pIC50 (HL-60) | pIC50 (SMMC-7721) | pIC50 (MCF7) | pIC50 (A549) | pIC50 (SW480)
COc1ccc(C(=O)C[n+]2cn([C@@H]3CC[C@@]4(C)C(=CC[C@H]5[C@@H]6C[C@@H]7O[C@]8(CC[C@@H](C)CO8)[C@@H](C)[C@@H]7[C@@]6(C)CC[C@@H]54)C3)c3cc(C)c(C)cc32)cc1 | 6.13 | 6.36 | 5.64 | 5.30 | 5.70
CC(=O)O[C@H]1CC[C@@]2(C)C(=CC[C@H]3[C@@H]4CC[C@H](n5cc[n+](CC(=O)c6ccccc6)c5)[C@@]4(C)CC[C@@H]32)C1 | 5.19 | 4.92 | 5.04 | < 4.70 | 4.95
COc1ccc(C(=O)C[n+]2ccn([C@H]3CC[C@@]4(C)C(=CC[C@H]5[C@@H]6C[C@@H]7O[C@]8(CC[C@@H](C)CO8)[C@@H](C)[C@@H]7[C@@]6(C)CC[C@@H]54)C3)c2)cc1 | 6.03 | 5.79 | 5.71 | 5.92 | 5.38
c1ccc2[nH]cnc2c1 [BENZIMIDAZOLE] | < 4.70 | < 4.70 | < 4.70 | < 4.70 | < 4.70
C[C@@H]1CC[C@@]2(OC1)O[C@H]1C[C@H]3[C@@H]4CC=C5C[C@H](n6cnc7ccccc76)CC[C@]5(C)[C@H]4CC[C@]3(C)[C@H]1[C@@H]2C | < 4.70 | < 4.70 | < 4.70 | < 4.70 | < 4.70
Cc1cc2nc[nH]c2cc1C [DIMEDAZOL] | < 4.70 | < 4.70 | < 4.70 | < 4.70 | < 4.70
C[C@@H]1CC[C@@]2(OC1)O[C@H]1C[C@H]3[C@@H]4CC=C5C[C@@H](O)CC[C@]5(C)[C@H]4CC[C@]3(C)[C@H]1[C@@H]2C [DISOGENIN] | < 4.70 | < 4.70 | < 4.70 | < 4.70 | < 4.70
CC(C)CCC[C@@H](C)[C@H]1CC[C@H]2[C@@H]3CC=C4C[C@@H](n5cc[n+](Cc6ccc7ccccc7c6)c5)CC[C@]4(C)[C@H]3CC[C@]12C | 5.27 | 5.85 | 5.08 | 5.16 | 5.03
CC(C)CCC[C@@H](C)[C@H]1CC[C@H]2[C@@H]3CC=C4C[C@H](n5cc[n+](Cc6ccccc6Br)c5)CC[C@]4(C)[C@H]3CC[C@]12C | 5.80 | 6.03 | 5.22 | 5.13 | 5.08
C[C@@H]1CC[C@@]2(OC1)O[C@H]1C[C@H]3[C@@H]4CC=C5C[C@@H](n6cc[n+](Cc7ccccc7Br)c6)CC[C@]5(C)[C@H]4CC[C@]3(C)[C@H]1[C@@H]2C | 6.04 | 5.64 | 5.73 | 5.52 | 5.27
CC(=O)O[C@H]1C(=O)[C@@]2(C)[C@H]([C@H](OC(=O)c3ccccc3)[C@]3(O)C[C@H](OC(=O)[C@H](O)[C@@H](NC(=O)c4ccccc4)c4ccccc4)C(C)=C1C3(C)C)[C@]1(OC(C)=O)CO[C@@H]1C[C@@H]2O [PACLITAXEL] | > 8.10 | > 8.10 | > 8.10 | > 8.10 | > 8.10
CC(C)CCC[C@@H](C)[C@H]1CC[C@H]2[C@@H]3CC=C4C[C@@H](n5cc[n+](CC(=O)c6ccccc6)c5)CC[C@]4(C)[C@H]3CC[C@]12C | 5.11 | 5.85 | 5.05 | 5.09 | 5.18
CC(C)CCC[C@@H](C)[C@H]1CC[C@H]2[C@@H]3CC=C4C[C@@H](n5cc[n+](CC(=O)c6ccc7ccccc7c6)c5)CC[C@]4(C)[C@H]3CC[C@]12C | 5.14 | 5.68 | < 4.70 | 5.02 | 4.95
COc1ccc(C(=O)C[n+]2cn([C@@H]3CC[C@@]4(C)C(=CC[C@H]5[C@@H]6CC[C@H]([C@H](C)CCCC(C)C)[C@@]6(C)CC[C@@H]54)C3)c3ccccc32)cc1 | 5.36 | 5.84 | 5.01 | 5.12 | 5.00
Cc1cc2c(cc1C)[n+](CC(=O)c1ccccc1)cn2[C@@H]1CC[C@@]2(C)C(=CC[C@H]3[C@@H]4CC[C@H]([C@H](C)CCCC(C)C)[C@@]4(C)CC[C@@H]32)C1 | 6.55 | 5.75 | 5.01 | 5.09 | 4.98
